Results taken from patent US12390457B2, “Stable solutions of immunomodulatory imide compounds for parenteral use” (Starton Therapeutics, Inc., priority 2021, dated 2025).
Converted amounts (≈) assume the structure as drawn. Where two headings read alike, the source gives them in different places.

Key:
[1] = LLD solubility in NMP and in aqueous povidone; format: physicochemical
Description: These materials conform to a like-dissolves-like solubility. Acetonitrile was also evaluated as a polar aprotic solvent to assess solubility. Organic volatile solvents were assessed, not to include them into formulation approach for parenteral use, but to ascertain the potential solubility parameter requirements to solubilize the API.
Further, the polymer chain of povidone has specific hydrogen bonding affinity which provides enhanced solubility and protection of the primary amine of lenalidomide, which is most susceptible to oxidation.
Dissolution is usually complete within approximately 15 minutes for volumes of approximately 20 mL. It should be appreciated, however, that larger scale production may require longer dissolution times.

[2] = cited from earlier work
[3] = cited from earlier work; remark: listed apart in the source
[4] = Forced degradation of LLD solutions (acidic, basic, oxidative; 40° C.) by HPLC; format: physicochemical
Description: The primary analytical method for analysis of drug substance in solution is a stability-indicating method, which identifies and quantitates various primary and degradative peaks of the API by HPLC.
In the process of the analytical evaluation, forced degradation of the API in solution is performed to assess how identified chromatography peaks, primary and degradation/impurity are formed.

[5] = Compatibility of lenalidomide with sodium metabisulfite antioxidant; format: physicochemical
[6] = polar aprotic solvent in combination with PVP, in presence of water

Saturation point of LLD in NMP ([1]; NMP): approximately 30%
Solubility in NMP ([1]; NMP): approximately 30 % by weight
solubility ([1]; NMP (n-methyl-2-pyrrolidone), organic solvent or mixture, read-out: Solubility in NMP): ~300000 µg/mL (≈ 1160 mM)
Improvement of aqueous solubility by aqueous povidone solvent ([1]; aqueous povidone): 2-3 fold
solubility ([1]; aqueous povidone, aqueous with cosolvent or surfactant or cyclodextrin, with povidone, read-out: Aqueous solubility): ≤ 800 µg/mL
solubility ([1]; aqueous, without povidone, read-out: Aqueous solubility): ~200 µg/mL (≈ 0.771 mM)
LLD degraded ([4]; 1% PEG400, basic hydrolysis, FIG. 13): 100%
LLD degraded ([4]; 1% PG, basic hydrolysis, FIG. 14): 100%
Degradation of LLD ([4]; 1% PVP K-12, basic hydrolysis, FIG. 15): 100%
Total related impurities ([4]; below pH 4.5): negligible total related impurities
Hydrolytic degradation mitigated [4, 6]: > 90%
Oxidation mitigated [4, 6]: ~100%
Loss of LLD ([4]; presence of ACN, basic hydrolysis, FIG. 8): 100%
Loss of LLD ([4]; presence of IPA, basic hydrolysis, FIG. 7): 100%
Interaction with sodium metabisulfite as an antioxidant [5]: direct interaction with lenalidomide
Structure (SMILES): Nc1cccc2c1CN(C1CCC(=O)NC1=O)C2=O (stereo not drawn) [LLD, 3-(4-amino-1-3-dihydro-1-oxo-2H-isoindol-2yl)-2,6-piperidinedione]
Solubility of the LLD in solution [2]: < 400 µg/mL
solubility ([2]; pH about 6.0 to about 7.0, dependent on storage conditions): about 0.2 mg/mL
solubility ([2]; physiologically acceptable pH about 3 to about 8): no more than 0.4 mg/mL
Total Related Substances by peak area ([3]; T0 upon preparation in standard solutions or formulations): > 1.5%
Total Related Substances ([3]; after 48 hours at ICH storage conditions): > 2.5%
Total Related Substances ([3]; after 48 hours, higher pH ranges such as pH 7.0 PBS): > 10%
